Assay [1] is described as follows: Polluted soil experiment (Examples 4 to 7): 1,1-dichloroethylene concentration in polluted soil by GC-MS. An excerpt:
(§1) FIG. 4 is a view showing an experiment facility used for effecting the method of decreasing nitrate nitrogen and volatile organic compounds in Example 4. A part (a) of FIG. 4 is a plan view of the experiment facility, and a part (b) of FIG. 4 is a side view thereof.
(§2) As shown in the part (a) of FIG. 4, the polluted soil 32 is provided approximately at the center of the experiment bath 34 so that it is surrounded by the experiment soil 33.
(§3) In Example 4, the concrete frame 31 in the form of square measure is a cube of 1 m square having open upper part, and artificial soil prepared by mixing kuroboku soil and loam in equivalent amounts was charged in the experiment bath 34 formed with the concrete frame 31 and allowed to stand outdoors (average temperature: 21° C.) for about 2 months.
(§4) Then, the surface of the artificial soil formed as described above was dug to form a hole in the form of cylinder having a diameter of 30 cm and a depth of 50 cm, and this hole was re-buried with the polluted soil 32.
(§5) The polluted soil was obtained by adding experiment materials (containing no nitrogen atom) such as fatty acids and alcohols of the present invention and comparative materials of conventional technologies used for comparison in an amount of 1 wt % to 1.2 ton of soil polluted with 1,1,1-trichloroethane and 1,1-dichloroethylene (containing about 1400 μg/L of […], about 50 μg/L of 1,1-dichloroethylene, by elution test according to Kankoku No. 46), and mixing kuroboku soil and loam in equivalent amounts uniformly.
(§6) To the polluted soil formed as described above was fed diammonium hydrogen phosphate having a concentration of 100 mg/L as a nutrient salt (nitrogen source) at a ratio of 140 L/day.
(§7) Under the above-mentioned conditions, the concentrations of 1,1,1-trichloroethane and 1,1-dichloroethylene in the polluted soil 32 were measured by gas chromatograph mass spectrometry 20 days after initiation of the experiment. Soils around the re-buried polluted soil 32 (soils on four corners A to D at a depth of 50 cm in FIG. 4) were sampled, and four-point average values of the total carbon concentration and total nitrogen concentration per soil dried weight were measured.
(§8) In the method of decreasing nitrate nitrogen and volatile organic compounds in Example 5, the same experiment facility (FIG. 4) as in Example 4 was used. Stearic acid was used as the decreasing agent such as fatty acids, alcohols and the like used in the present invention, and an iron powder having an average particle size of about 15 μm was added simultaneously with this stearic acid, to give polluted soil of compartment No. 1. In polluted soil of compartment No. 2, stearic acid and an aluminum powder having an average particle size of 180 μm were added in the same concentration as the polluted soil of compartment No. 1. The same experiment as in Example 4 was conducted on these polluted soils (compartment Nos. 1, 2).
(§9) In the method of decreasing nitrate nitrogen and volatile organic compounds in Example 6, the same experiment facility (FIG. 4) as in Example 4 was used. Beef tallow fatty acid was used as the decreasing agent such as fatty acids, alcohols and the like used in the present invention, and a bacteria previously cultured was inoculated to the soil and the same experiment as in Example 4 was conducted.
(§10) For obtaining the bacteria used in Example 6, 1,1,1-trichloroethane was controlled to 5000 μg/L, 1,1-dichloroethylene was controlled to 5000 μg/L, diammonium hydrogen phosphate was controlled to 800 mg/L and beef tallow fatty acid which was only carbon source was controlled to 0.5 wt % in soil collected at a point of 30 cm depth from the ground surface of agricultural land (tea field), and the medium was cultured at a temperature of 16° C. for 12 days.
(§11) In the method of decreasing nitrate nitrogen and volatile organic compounds in Example 7, the same experiment facility (FIG. 4) as in Example 4 was used. […]

Assay [2] can be described thus: Polluted soil experiment (Examples 4 to 7): 1,1,1-trichloroethane concentration in polluted soil by GC-MS.
Text: as §1, §2, §3, §4, §5, §6, §7, §8, §9, §10, §11

The mark [3] stands for this setting: Example 7, nutrient salt containing nitrogen not added.
Setting [4] is: Example 4, 1 wt % material in polluted soil (about 50 μg/L initially), diammonium hydrogen phosphate fed.
[5] abbreviates: Example 4, 1 wt % material in polluted soil (about 1400 μg/L initially), diammonium hydrogen phosphate fed.

Turning to `CCCCCCCCCCCCCCCCCC(N)=O` [Stearic amide], in assay [1] (setting [3]), the “1,1-dichloroethylene concentration after 20 days” value turned out to be 24 µg/L. Also, in assay [2] (setting [3]), the “1,1,1-trichloroethane concentration after 20 days” value was 790 µg/L.

Regarding `CCCCCCCC/C=C\CCCCCCCC(=O)O` [Oleic acid, reference compound], the “1,1-dichloroethylene concentration after 20 days” value in assay [1] (setting [4]) worked out at 21 µg/L. The “1,1,1-trichloroethane concentration after 20 days” value in assay [2] (setting [5]) was 690 µg/L.

As to `CCCCCCCCCCCCCCCCCCNCCCCCCCCCCCCCCCCCC` [Distearylamine], in assay [1] (setting [3]), the “1,1-dichloroethylene concentration after 20 days” value was determined as 24 µg/L. The “1,1,1-trichloroethane concentration after 20 days” value in assay [2] (setting [3]) is 910 µg/L.

For Polyoxyethylene octylphenyl ether, the “1,1-dichloroethylene concentration after 20 days” value in assay [1] (setting [4]) worked out at 24 µg/L. In addition, the “1,1,1-trichloroethane concentration after 20 days” value in assay [2] (setting [5]) is 820 µg/L.

For `CCCCCCCCCCCCCCCCCC(=O)O[C@H]1CC[C@@]2(C)C(=CC[C@H]3[C@@H]4CC[C@H]([C@H](C)CCCC(C)C)[C@@]4(C)CC[C@@H]32)C1` [Cholesterol stearate], the “1,1-dichloroethylene concentration after 20 days” value in assay [1] (setting [4]) was 20 µg/L. Also, the “1,1,1-trichloroethane concentration after 20 days” value in assay [2] (setting [5]) was determined as 650 µg/L.

Take Oleic monoglyceride: the “1,1-dichloroethylene concentration after 20 days” value in assay [1] (setting [4]) amounted to 19 µg/L. Moreover, the “1,1,1-trichloroethane concentration after 20 days” value in assay [2] (setting [5]) was determined as 700 µg/L.

With `CCCCCCCC(=O)O` [Caprylic acid, reference compound], the “1,1-dichloroethylene concentration after 20 days” value in assay [1] (setting [4]) was 16 µg/L. Further, the “1,1,1-trichloroethane concentration after 20 days” value in assay [2] (setting [5]) was determined as 960 µg/L.

Consider `CCO` [Ethanol, reference compound], for which the “1,1-dichloroethylene concentration after 20 days” value in assay [1] (setting [4]) came to 19 µg/L. Also, in assay [2] (setting [5]), the “1,1,1-trichloroethane concentration after 20 days” value was determined as 1100 µg/L.

Turning to `CC(=O)O.CCCCCCCCCCCCCCCCCCN` [Stearylamine acetate], the “1,1-dichloroethylene concentration after 20 days” value in assay [1] (setting [3]) stood at 28 µg/L. In assay [2] (setting [3]), the “1,1,1-trichloroethane concentration after 20 days” value is 900 µg/L.

With `CCCCCCCCCCCCCCN` [Myristylamine], the “1,1-dichloroethylene concentration after 20 days” value in assay [1] (setting [3]) stood at 29 µg/L. Also, in assay [2] (setting [3]), the “1,1,1-trichloroethane concentration after 20 days” value came to 940 µg/L.

`CCCCCCCCCCCCCCCCCCCCCCO` [Behenyl alcohol]: the “1,1-dichloroethylene concentration after 20 days” value in assay [1] (setting [4]) worked out at 21 µg/L. The “1,1,1-trichloroethane concentration after 20 days” value in assay [2] (setting [5]) was 920 µg/L.

On to `CO` [Methanol, reference compound], for which, in assay [1] (setting [3]), the “1,1-dichloroethylene concentration after 20 days” value came out at 49 µg/L. Also, in assay [2] (setting [3]), the “1,1,1-trichloroethane concentration after 20 days” value is 1330 µg/L.

For `CCCCCCCCCCCCCCCCCCC(=O)CCCCCCCCCCCCCCCCCC` [Distearyl ketone], in assay [1] (setting [3]), the “1,1-dichloroethylene concentration after 20 days” value stood at 20 µg/L. For the same compound, the “1,1,1-trichloroethane concentration after 20 days” value in assay [2] (setting [3]) is 830 µg/L.

Regarding `CC(=O)O` [Acetic acid, reference compound], in assay [1] (setting [3]), the “1,1-dichloroethylene concentration after 20 days” value worked out at 41 µg/L. Moreover, in assay [2] (setting [3]), the “1,1,1-trichloroethane concentration after 20 days” value worked out at 1350 µg/L.

Regarding `CC(O)C(=O)O` (stereo not drawn) [Lactic acid, reference compound], the “1,1-dichloroethylene concentration after 20 days” value in assay [1] (setting [4]) came to 20 µg/L. Further, the “1,1,1-trichloroethane concentration after 20 days” value in assay [2] (setting [5]) came to 870 µg/L.

The record behind these values is patent publication US7030287B2, “Method of decreasing nitrate nitrogen and volatile organic compound in soil and groundwater” (Matsushita Electric Industrial Co., Ltd., priority 2001, dated 2006).
